Assay results from ChEMBL document CHEMBL1201862, “PubChem BioAssay data set” (2004).
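How tested: cells in 96-well plates exposed to compound for 48 hours at five concentrations. Abbreviation: GI50, concentration required for 50% inhibition of growth.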 Active and inactive are the calls of the source. Cut-off read from the data, not from the text of the source: active = GI50 up to about 1.1 µM and inactive = higher.

Columns and labels:
Experiment in all cases: NCI-60 cell line screen, 48 h
[1] = system: RPMI-8226
[2] = system: SN12C
[3] = system: Malme-3M
[4] = system: TK-10
[5] = system: COLO 205
[6] = system: LOX IMVI
[7] = system: DU-145
[8] = system: SK-OV-3
[9] = system: T47D
[10] = system: PC-3
[11] = system: HL-60
[12] = system: Hs-578T
[13] = system: SK-MEL-5
[14] = system: SK-MEL-28
[15] = system: HCC 2998
[16] = system: HCT-116
[17] = system: NCI-H522
[18] = system: OVCAR-8
[19] = system: IGROV-1
[20] = system: HOP-92

Structure (SMILES)	GI50 [1]	GI50 [2]	GI50 [3]	GI50 [4]	GI50 [5]	GI50 [6]	GI50 [7]	GI50 [8]	GI50 [9]	GI50 [10]	GI50 [11]	GI50 [12]	GI50 [13]	GI50 [14]	GI50 [15]	GI50 [16]	GI50 [17]	GI50 [18]	GI50 [19]	GI50 [20]
O=c1c(-c2ccc(O)cc2)coc2cc(OC3OC(CO)C(O)C(O)C3O)cc(O)c12 (stereo not drawn)	51.8 µM (inactive)	> 100 µM (inactive)	> 10 µM (inactive)	33 µM (inactive)	> 10 µM (inactive)	79.8 µM (inactive)	> 100 µM (inactive)	> 10 µM (inactive)	> 10 µM (inactive)	63.8 µM (inactive)	> 10 µM (inactive)	61.1 µM (inactive)	> 10 µM (inactive)	> 10 µM (inactive)	> 100 µM (inactive)	> 100 µM (inactive)	45.7 µM (inactive)	> 100 µM (inactive)	> 10 µM (inactive)	–
COC(=O)C1=C(C)NC(=S)NC1c1ccc(N(CCCl)CCCl)cc1Cl (stereo not drawn)	1.33 µM (inactive)	34.2 µM (inactive)	3.04 µM (inactive)	32.4 µM (inactive)	25.3 µM (inactive)	24.8 µM (inactive)	12.4 µM (inactive)	> 100 µM (inactive)	6.71 µM (inactive)	20.9 µM (inactive)	39.4 µM (inactive)	> 22 µM (inactive)	1.82 µM (inactive)	29 µM (inactive)	–	34 µM (inactive)	31.8 µM (inactive)	31 µM (inactive)	29.4 µM (inactive)	74.8 µM (inactive)
Cc1nc2ccccc2c(=O)n1NC(=S)Nc1ccc(Cl)cc1[N+](=O)[O-]	> 100 µM (inactive)	> 100 µM (inactive)	> 100 µM (inactive)	> 100 µM (inactive)	> 100 µM (inactive)	–	> 100 µM (inactive)	> 100 µM (inactive)	> 100 µM (inactive)	> 100 µM (inactive)	> 100 µM (inactive)	> 100 µM (inactive)	> 100 µM (inactive)	> 100 µM (inactive)	–	> 100 µM (inactive)	> 100 µM (inactive)	> 100 µM (inactive)	> 100 µM (inactive)	> 100 µM (inactive)
O=C(CN1CCOCC1)NC1=Nc2ncccc2C(=O)NN1	> 10 µM (inactive)	> 10 µM (inactive)	> 10 µM (inactive)	> 10 µM (inactive)	–	> 10 µM (inactive)	> 10 µM (inactive)	> 10 µM (inactive)	> 10 µM (inactive)	> 10 µM (inactive)	> 10 µM (inactive)	> 10 µM (inactive)	> 10 µM (inactive)	> 10 µM (inactive)	–	> 10 µM (inactive)	–	> 10 µM (inactive)	> 10 µM (inactive)	> 10 µM (inactive)
O=C(CC1(O)C(=O)Nc2c(Cl)cc(Cl)cc21)c1ccc(Br)cc1Br (stereo not drawn)	2.75 µM (inactive)	13.1 µM (inactive)	11.5 µM (inactive)	18.1 µM (inactive)	7.21 µM (inactive)	5.19 µM (inactive)	16.3 µM (inactive)	21.5 µM (inactive)	–	16.9 µM (inactive)	1.04 µM (active)	0.0646 µM (active)	7.4 µM (inactive)	14.3 µM (inactive)	16.7 µM (inactive)	4.31 µM (inactive)	2.89 µM (inactive)	7.98 µM (inactive)	16.6 µM (inactive)	2.4 µM (inactive)
CCOC(=O)C1(N)CCc2[nH][nH]c(=O)c2C1 (stereo not drawn)	> 100 µM (inactive)	–	> 100 µM (inactive)	> 100 µM (inactive)	> 100 µM (inactive)	> 100 µM (inactive)	–	> 100 µM (inactive)	> 100 µM (inactive)	> 100 µM (inactive)	> 100 µM (inactive)	> 100 µM (inactive)	> 100 µM (inactive)	> 100 µM (inactive)	> 100 µM (inactive)	> 100 µM (inactive)	> 100 µM (inactive)	> 100 µM (inactive)	> 100 µM (inactive)	> 100 µM (inactive)
COc1cccc(-c2ccc3c4c2O[C@H]2C(=O)CC[C@@]5(O)[C@@H](C3)N(CC3CC3)CC[C@]425)c1	12.6 µM (inactive)	18.5 µM (inactive)	20.9 µM (inactive)	17.3 µM (inactive)	13 µM (inactive)	16.3 µM (inactive)	24.4 µM (inactive)	18.7 µM (inactive)	18.4 µM (inactive)	13.4 µM (inactive)	19.1 µM (inactive)	12.3 µM (inactive)	14.8 µM (inactive)	27.4 µM (inactive)	–	17.5 µM (inactive)	17.7 µM (inactive)	18.5 µM (inactive)	21.8 µM (inactive)	15.3 µM (inactive)
CCOC(=O)NN(C(=O)OCC)c1c(C)cc(C)cc1C	> 100 µM (inactive)	> 100 µM (inactive)	> 100 µM (inactive)	> 100 µM (inactive)	> 100 µM (inactive)	95.3 µM (inactive)	> 100 µM (inactive)	> 100 µM (inactive)	> 100 µM (inactive)	> 100 µM (inactive)	> 100 µM (inactive)	> 100 µM (inactive)	> 100 µM (inactive)	> 100 µM (inactive)	> 100 µM (inactive)	> 100 µM (inactive)	> 100 µM (inactive)	> 100 µM (inactive)	64.4 µM (inactive)	–
O=S(=O)(/N=c1\[nH]c(-c2cc(O)c(O)c(O)c2)cs1)c1ccc(Cl)cc1Cl	19.4 µM (inactive)	18.7 µM (inactive)	21.8 µM (inactive)	4.65 µM (inactive)	22 µM (inactive)	12.8 µM (inactive)	20.3 µM (inactive)	72.6 µM (inactive)	15.3 µM (inactive)	34.5 µM (inactive)	41.8 µM (inactive)	20.1 µM (inactive)	17.1 µM (inactive)	> 100 µM (inactive)	–	19 µM (inactive)	17.9 µM (inactive)	0.034 µM (active)	20.8 µM (inactive)	41.2 µM (inactive)
CCOC(=O)[C@@H]1[C@@H](c2ccccc2)N(C)O[C@@]1(c1ccccc1)C(F)(F)F	20.7 µM (inactive)	> 100 µM (inactive)	44.2 µM (inactive)	> 100 µM (inactive)	> 100 µM (inactive)	70.5 µM (inactive)	> 100 µM (inactive)	43.7 µM (inactive)	67.9 µM (inactive)	58.5 µM (inactive)	–	> 100 µM (inactive)	27 µM (inactive)	85.9 µM (inactive)	–	36.5 µM (inactive)	39.9 µM (inactive)	> 100 µM (inactive)	> 100 µM (inactive)	> 100 µM (inactive)
O=C(Nc1cccc(F)c1)c1cc2ccc(O)cc2o/c1=N\c1cccc(F)c1	2.87 µM (inactive)	5.96 µM (inactive)	4.37 µM (inactive)	–	> 100 µM (inactive)	3.27 µM (inactive)	4.27 µM (inactive)	13.2 µM (inactive)	3.27 µM (inactive)	17.9 µM (inactive)	2.65 µM (inactive)	3.09 µM (inactive)	3.6 µM (inactive)	5.09 µM (inactive)	27.1 µM (inactive)	4.78 µM (inactive)	2.99 µM (inactive)	2.31 µM (inactive)	2.08 µM (inactive)	–
